Data taken from US12495798B2, “Nicotinamide compound and herbicidal composition comprising compound” (KOREA RESEARCH INSTITUTE OF CHEMICAL TECHNOLOGY, priority 2019, dated 2025).

What was measured:
Format in all cases: in vivo
barnyard grass [1] = assay: Herbicidal activity test against upland field weeds (foliar treatment test); parameters: key to Foliar treatment herbicidal activity, barnyard grass: 0 (no control); 100 (complete control); conditions: 50 g ai/ha, scale 0-100; for pest or weed control at 50 g/ha: Echinochloa crus-galli
How it was run: (§1)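 Greenhouse-grown plants (30±5 °C, 14/10 h light/dark) foliar hand-sprayed with compound in 50% acetone, 0.1% Tween-20 at 50 or 75 g a.i./ha. Control visually scored 0 (none) to 100 (complete) versus untreated after 14 days, or 21 days if needed.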

indian jointvetch [2] = assay: Herbicidal activity test against upland field weeds (soil treatment test); parameters: key to Soil treatment herbicidal activity, Indian jointvetch: 0 (no control); 100 (complete control); conditions: 50 g ai/ha, scale 0 (no control) to 100 (complete control)
Experimental: (§2) Experimental Example 2: Herbicidal Activity Test Against Upland Field Weeds (Soil Treatment Test) Soil treatment was performed as follows: After filling a square plastic pot having a surface area of 350 cm^2 with sandy loam mixed with 1 g per pot (350 cm^2) of horticultural mixed fertilizer (N:P:K=11:10:11), seeds (10˜15 grains) or rootstocks (2 pieces) of 5 kinds of grassy weeds of sorghum, barnyard grass, quack grass, crabgrass, fall panicum, and 5 kinds of broadleaf weeds of black nightshade, indian jointvetch, velvetleaf, cocklebur, bindweed, which had been stored in a low temperature (6° C.), were sown. The day after sowing, test compound solutions were made by diluting with a preparation solution (including 50% acetone, 0.1% Tween-20) so that the final treatment amount of the test compounds was 50 or 75 g a.i./ha. The prepared test compound solution was used for treating soil surface by hand-spraying 14 mL per pot in a fume hood. After the treatment, it was managed under the same greenhouse conditions (average temperature 30±5° C., light/dark=14/10 hours), and after 14 days (after 21 days if necessary), the external symptoms and efficacy were investigated according to the scale of 0 (no control) to 100 (complete control). The results of Table 8 were obtained by evaluating weed control value to the untreated control by conducting visual assessment.

fall panicum [3] = assay: Herbicidal activity test against upland field weeds (foliar treatment test); conditions: 50 g ai/ha, scale 0-100; for pest or weed control at 50 g/ha: Panicum dichotomiflorum
How it was run: as §1

sorghum [4] = assay: Herbicidal activity test against upland field weeds (soil treatment test); parameters: key to Soil treatment herbicidal activity, Sorghum: 0 (no control); 100 (complete control); conditions: 50 g ai/ha, scale 0 (no control) to 100 (complete control)
Experimental: as §2

black nightshade [5] = assay: as above; parameters: key to Soil treatment herbicidal activity, black nightshade: 0 (no control); 100 (complete control); conditions: 50 g ai/ha, scale 0 (no control) to 100 (complete control)
Experimental: as §2

indian jointvetch [6] = assay: Herbicidal activity test against upland field weeds (foliar treatment test); conditions: 50 g ai/ha, scale 0-100
How it was run: as §1

crabgrass [7] = assay: as above; conditions: 50 g ai/ha, scale 0-100; for pest or weed control at 50 g/ha: Digitaria sanguinalis
How it was run: as §1

bindweed [8] = assay: Herbicidal activity test against upland field weeds (soil treatment test); conditions: 50 g ai/ha, scale 0 (no control) to 100 (complete control)
Experimental: as §2

velvetleaf [9] = assay: as above; parameters: key to Soil treatment herbicidal activity, velvet leaf: 0 (no control); 100 (complete control); conditions: 50 g ai/ha, scale 0 (no control) to 100 (complete control)
Experimental: as §2

quack grass [10] = assay: as above; parameters: key to Soil treatment herbicidal activity, quack grass: 0 (no control); 100 (complete control); conditions: 50 g ai/ha, scale 0 (no control) to 100 (complete control)
Experimental: as §2

crabgrass [11] = assay: as above; parameters: key to Soil treatment herbicidal activity, Crabgrass: 0 (no control); 100 (complete control); conditions: 50 g ai/ha, scale 0 (no control) to 100 (complete control)
Experimental: as §2

fall panicum [12] = assay: as above; parameters: key to Soil treatment herbicidal activity, Fall panicum: 0 (no control); 100 (complete control); conditions: 50 g ai/ha, scale 0 (no control) to 100 (complete control)
Experimental: as §2

quack grass [13] = assay: Herbicidal activity test against upland field weeds (foliar treatment test); parameters: key to Foliar treatment herbicidal activity, quack grass: 0 (no control); 100 (complete control); conditions: 50 g ai/ha, scale 0-100
How it was run: as §1

bindweed [14] = assay: as above; parameters: key to Foliar treatment herbicidal activity, Bindweed: 0 (no control); 100 (complete control); conditions: 50 g ai/ha, scale 0-100
How it was run: as §1

cocklebur = assay: as above; conditions: 50 g ai/ha, scale 0-100; for pest or weed control at 50 g/ha: Xanthium strumarium
How it was run: as §1

velvetleaf [15] = assay: as above; parameters: key to Foliar treatment herbicidal activity, velvet leaf: 0 (no control); 100 (complete control); conditions: 50 g ai/ha; for pest or weed control at 50 g/ha: Abutilon theophrasti, scale 0-100, read-out: Foliar treatment herbicidal activity, velvet leaf
How it was run: as §1

barnyard grass [16] = assay: Herbicidal activity test against upland field weeds (soil treatment test); parameters: key to Soil treatment herbicidal activity, barnyard grass: 0 (no control); 100 (complete control); conditions: 50 g ai/ha, scale 0 (no control) to 100 (complete control)
Experimental: as §2

sorghum [17] = assay: Herbicidal activity test against upland field weeds (foliar treatment test); conditions: 50 g ai/ha, scale 0-100; for plant injury at 50 g/ha: Sorghum
How it was run: as §1

black nightshade [18] = assay: as above; parameters: key to Foliar treatment herbicidal activity, black nightshade: 0 (no control); 100 (complete control); conditions: 50 g ai/ha, scale 0-100
How it was run: as §1

wheat = assay: Phytotoxicity test for upland field crops (foliar treatment test); parameters: key: 0 (no harm); 9 (complete withered)
How it was run: (§3)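 Crops grown in greenhouse pots (30±5 °C, 14/10 h light) were foliar-sprayed with compound at 19–300 g a.i./ha in 33% acetone/0.1% Tween-20. Phytotoxicity scored 0 (no harm) to 9 (complete withering) versus untreated control at 7 and 14 days, 21 if needed.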

corn = assay: as above; parameters: key: 0 (no harm); 9 (complete withered)
How it was run: as §3

CC(C)OC(=O)OC(C)N(C(=O)c1ccc(C(F)(F)F)nc1COCc1nnn(C)n1)c1nnnn1C (centres unmarked) [Compound No. 4-12, isopropyl(1-(N-(1-methyl-1H-tetrazol-5-yl)-2-(((2-methyl-2H-tetrazol-5-yl)methoxy)methyl)-6-(trifluoromethyl)nicotinamido)ethyl)carbonate]
Foliar treatment herbicidal activity, barnyard grass (barnyard grass [1]): 100
Soil treatment herbicidal activity, Indian jointvetch (indian jointvetch [2]): 40
Foliar treatment herbicidal activity, Fall panicum (fall panicum [3]): 98
Soil treatment herbicidal activity, Sorghum (sorghum [4]): 20
Soil treatment herbicidal activity, black nightshade (black nightshade [5]): 100
Foliar treatment herbicidal activity, Indian jointvetch (indian jointvetch [6]): 98
Foliar treatment herbicidal activity, Crabgrass (crabgrass [7]): 95
Soil treatment herbicidal activity, Bindweed (bindweed [8]): 98
Soil treatment herbicidal activity, velvet leaf (velvetleaf [9]): 100
Soil treatment herbicidal activity, quack grass (quack grass [10]): 0
Soil treatment herbicidal activity, Crabgrass (crabgrass [11]): 100
Soil treatment herbicidal activity, Fall panicum (fall panicum [12]): 90
Foliar treatment herbicidal activity, quack grass (quack grass [13]): 0
Foliar treatment herbicidal activity, Bindweed (bindweed [14]): 100
Foliar treatment herbicidal activity, Cocklebur (cocklebur): 98
Foliar treatment herbicidal activity, velvet leaf (velvetleaf [15]; scale 0-100): 100
Soil treatment herbicidal activity, barnyard grass (barnyard grass [16]): 100
Foliar treatment herbicidal activity, Sorghum (sorghum [17]): 70
Foliar treatment herbicidal activity, black nightshade (black nightshade [18]): 100

Cn1cnc(COCc2nc(C(F)(F)C(F)(F)F)ccc2C(=O)Nc2nnnn2C)n1 [Compound No. 2-83, 2-(((1-methyl-1H-1,2,4-triazol-3-yl)methoxy)methyl)-N-(1-methyl-1H-tetrazol-5-yl)-6-(perfluoroethyl)nicotinamide]
pest or weed control at 50 g/ha (barnyard grass [1]): 90%
pest or weed control at 50 g/ha (indian jointvetch [2]): 80%
pest or weed control at 50 g/ha (fall panicum [3]): 70%
Soil treatment herbicidal activity, Sorghum (sorghum [4]): 0
Soil treatment herbicidal activity, black nightshade (black nightshade [5]): 100
pest or weed control at 50 g/ha (indian jointvetch [6]): 70%
pest or weed control at 50 g/ha (crabgrass [7]): 70%
pest or weed control at 50 g/ha (bindweed [8]): 40%
Soil treatment herbicidal activity, velvet leaf (velvetleaf [9]): 100
Soil treatment herbicidal activity, quack grass (quack grass [10]): 0
pest or weed control at 50 g/ha (crabgrass [11]; Digitaria sanguinalis): 70%
pest or weed control at 50 g/ha (fall panicum [12]; Panicum dichotomiflorum): 60%
Foliar treatment herbicidal activity, quack grass (quack grass [13]): 0
pest or weed control at 50 g/ha (bindweed [14]): 40%
pest or weed control at 50 g/ha (cocklebur): 60%
pest or weed control at 50 g/ha (velvetleaf [15]): 70%
Soil treatment herbicidal activity, barnyard grass (barnyard grass [16]): 0
plant injury at 50 g/ha (sorghum [17]): 20%
pest or weed control at 50 g/ha (black nightshade [18]; Solanum nigrum): 98%

Cn1nnc(CSCc2nc(C(F)(F)F)ccc2C(=S)Nc2nnnn2C)n1 [Compound No. 2-107, N-(1-methyl-1H-tetrazol-5-yl)-2-((((2-methyl-2H-tetrazol-5-yl)methyl)thio)methyl)-6-(trifluoromethyl)pyridin-3-carbothioamide]
pest or weed control at 50 g/ha (barnyard grass [1]): 70%
Soil treatment herbicidal activity, Indian jointvetch (indian jointvetch [2]): 0
pest or weed control at 50 g/ha (fall panicum [3]): 60%
Foliar treatment phytotoxicity, Wheat (wheat; 50 g ai/ha, Wheat (7 days after treatment)): 3
Foliar treatment phytotoxicity, Wheat (wheat; 50 g ai/ha, Wheat (14 days after treatment)): 3
Foliar treatment phytotoxicity, Wheat (wheat; 100 g ai/ha, Wheat (7 days after treatment)): 4
Foliar treatment phytotoxicity, Wheat (wheat; 100 g ai/ha, Wheat (14 days after treatment)): 3
Foliar treatment phytotoxicity, Corn (corn; 50 g ai/ha, Corn (7 days after treatment)): 1
Foliar treatment phytotoxicity, Corn (corn; 50 g ai/ha, Corn (14 days after treatment)): 0
Foliar treatment phytotoxicity, Corn (corn; 100 g ai/ha, Corn (7 days after treatment)): 0
Foliar treatment phytotoxicity, Corn (corn; 100 g ai/ha, Corn (14 days after treatment)): 0
plant injury at 50 g/ha (sorghum [4]; Sorghum): 20%
pest or weed control at 50 g/ha (black nightshade [5]; Solanum nigrum): 70%
pest or weed control at 50 g/ha (indian jointvetch [6]): 98%
pest or weed control at 50 g/ha (crabgrass [7]): 95%
pest or weed control at 50 g/ha (bindweed [8]): 40%
Soil treatment herbicidal activity, velvet leaf (velvetleaf [9]): 100
Soil treatment herbicidal activity, quack grass (quack grass [10]): 0
Soil treatment herbicidal activity, Crabgrass (crabgrass [11]): 0
Soil treatment herbicidal activity, Fall panicum (fall panicum [12]): 0
Foliar treatment herbicidal activity, quack grass (quack grass [13]): 0
pest or weed control at 50 g/ha (bindweed [14]): 98%
pest or weed control at 50 g/ha (cocklebur): 98%
pest or weed control at 50 g/ha (velvetleaf [15]): 70%
Soil treatment herbicidal activity, barnyard grass (barnyard grass [16]): 0
plant injury at 50 g/ha (sorghum [17]): 70%
Foliar treatment herbicidal activity, black nightshade (black nightshade [18]): 100
